# From ChEMBL document CHEMBL1122559, “Inhibition of human dihydrofolate reductase by 4,6-diamino-1,2-dihydro-2,2-dimethyl-1-(substituted-phenyl)-s-triazine s. A quantitative structure-activity relationship analysis” (J Med Chem, 1984)
# Target: T1, Dihydrofolate reductase (Homo sapiens) (UniProt P00374)
# T1 sequence (whole entry): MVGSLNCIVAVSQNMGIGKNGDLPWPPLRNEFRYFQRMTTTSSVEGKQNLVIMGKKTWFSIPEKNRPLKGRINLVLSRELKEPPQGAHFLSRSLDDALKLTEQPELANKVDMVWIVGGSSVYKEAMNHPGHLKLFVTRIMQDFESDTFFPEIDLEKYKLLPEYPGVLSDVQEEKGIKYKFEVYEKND
# Description: Inhibitory activity against human lymphoblastoid cell (WIL2) dihydrofolate reductase (DHFR)
row,Structure (SMILES),Log 1/Ki app
1,CC1(C)N=C(N)N=C(N)N1c1ccc(Br)cc1,5.76
2,COC(=O)c1ccc(N2C(N)=NC(N)=NC2(C)C)cc1,3.85
3,CC1(C)N=C(N)N=C(N)N1c1ccc(OCc2ccc(C(N)=O)cc2)cc1,7.23
4,CC1(C)N=C(N)N=C(N)N1c1ccc(OCCOc2ccc(N)cc2)cc1,6
5,CC1(C)N=C(N)N=C(N)N1c1ccc(O)cc1,4.57
6,CC1(C)N=C(N)N=C(N)N1c1ccc(C#Cc2ccccc2)cc1,5.42
7,CC1(C)N=C(N)N=C(N)N1c1ccc(S(N)(=O)=O)cc1,3.81
8,Cc1cccc(SCc2ccc(N3C(N)=NC(N)=NC3(C)C)cc2)c1,7.22
9,CC1(C)N=C(N)N=C(N)N1c1ccc(F)cc1,6.15
10,CC(=O)c1ccc(N2C(N)=NC(N)=NC2(C)C)cc1,4.5
11,CC1(C)N=C(N)N=C(N)N1c1ccc(SCc2ccc(Cl)cc2)cc1,6.97
12,CCCOc1ccc(N2C(N)=NC(N)=NC2(C)C)cc1,5.57
13,Cc1ccc(N2C(N)=NC(N)=NC2(C)C)cc1,5.97
14,CC1(C)N=C(N)N=C(N)N1c1ccc(OCc2ccc(S(N)(=O)=O)cc2)cc1,7.21
15,CC1(C)N=C(N)N=C(N)N1c1ccc(C#N)cc1,3.69
16,CCCCCCCCCCCOc1ccc(N2C(N)=NC(N)=NC2(C)C)cc1,5.68
17,CC1(C)N=C(N)N=C(N)N1c1ccc(OCc2ccc(Cl)c(Cl)c2)cc1,6.46
18,CCCCCCCCCc1ccc(N2C(N)=NC(N)=NC2(C)C)cc1,6.52

row,Structure (SMILES),Log 1/Ki app
1,CC1(C)N=C(N)N=C(N)N1c1ccc(N)cc1,4.65
2,CC(=O)Nc1ccc(N2C(N)=NC(N)=NC2(C)C)cc1,4.23
3,CC1(C)N=C(N)N=C(N)N1c1ccc(CSc2ccccc2)cc1,7.33
4,CC1(C)N=C(N)N=C(N)N1c1ccc(I)cc1,5.51
5,CC1(C)N=C(N)N=C(N)N1c1ccc(OCc2ccccc2)cc1,6.93
6,CC1(C)N=C(N)N=C(N)N1c1ccc(SCc2ccccc2)cc1,7.01
7,CCCCCCOc1ccc(N2C(N)=NC(N)=NC2(C)C)cc1,5.53
8,CC1(C)N=C(N)N=C(N)N1c1ccc(OCC(=O)N2CCOCC2)cc1,5.66
9,CCCCCCCCCCCCOc1ccc(N2C(N)=NC(N)=NC2(C)C)cc1,5.85
10,CC1(C)N=C(N)N=C(N)N1c1ccc(OCc2ccc(CO)cc2)cc1,7.12
11,Cc1ccccc1SCc1ccc(N2C(N)=NC(N)=NC2(C)C)cc1,7.18
12,CC(C)(C)c1ccc(N2C(N)=NC(N)=NC2(C)C)cc1,5.66
13,COc1ccc(N2C(N)=NC(N)=NC2(C)C)cc1,5.31
14,CC1(C)N=C(N)N=C(N)N1c1ccc(C(F)(F)F)cc1,5.58
15,CCCCc1ccc(N2C(N)=NC(N)=NC2(C)C)cc1,6.27
16,CC1(C)N=C(N)N=C(N)N1c1ccc(S(C)(=O)=O)cc1,4.08
17,CCOC(=O)c1ccc(N2C(N)=NC(N)=NC2(C)C)cc1,3.46
